Measured values as given in patent US20260103465A1, “GLYCOGEN SYNTHASE KINASE 3 INHIBITORS AND USES THEREOF” (The Broad Institute, Inc., priority 2023, published 2026).
pIC50: −log10 of the molar value. Where two headings read alike, the source gives them in different places. One block for each compound: values may come before it.

Experiments:
[1] = target: T1, GSK3a (GST-full length GSK3a) (Homo sapiens, UniProt P49840); assay: GSK3a TR-FRET kinase inhibition assay; type: biochemical
T1 construct: GST-full length GSK3a [SignalChem G08-10G]; purchased SignalChem G08-10G
Description: (§1) TR-FRET assay was performed in a white, 384 well, low volume, flat bottom plate (Grenier). After a 30 minute preincubation in assay buffer with the indicated concentration of compound, the kinase activity was initiated by the addition of the substrates. 1 nM GSK3a (GST-full length GSK3a [SignalChem G08-10G]) or 1 nM GSK3b (GST-full length GSK3b: [SignalChem G08-9G]) were then incubated at ambient temperature for 100 minutes in 10 μl of 50 mM Tris, pH 7.5, 20 mM MgCl2, 0.05 mM DTT, 100 μg/ml BSA and 1% DMSO, with 200 nM biotinylated peptide substrate (biotinylated and S645 phosphorylated glycogen synthase 631-650) and ATP (e.g., at 2 μM, 4 μM, 10 μM, 100 μM, or 1 mM). The kinase activity was quenched with 2 μl of 250 mM EDTA. A 10 μl volume of 40 nM Strepavidin-d2, 2 nM […] antibody in TR-FRET Detection Buffer (Invitrogen) was then added. After 60 min at room temperature the plate was read on Envision plate reader using Ex: 340 nm, Em: 615 nm and […]. The normalized 665/615 Signal ratio versus log compound concentration was analyzed by XLFIT to yield IC50 values.

[2] = target: T2, GSK3b (GST-full length GSK3b) (Homo sapiens, UniProt P49841); assay: GSK3b TR-FRET kinase inhibition assay; type: biochemical
T2 construct: GST-full length GSK3b: [SignalChem G08-9G]; purchased SignalChem G08-9G
Description: as §1

[3] = 1 mM ATP, Table 5, read-out: GSK3α TR-FRET 1 mM ATP Average IC50
[4] = 1 mM ATP, Table 5, read-out: GSK3β TR-FRET 1 mM ATP Average IC50
[5] = 4 μM ATP, read-out: GSK3α TR-FRET 4 μM ATP GMean IC50
[6] = 2 μM ATP, read-out: GSK3β TR-FRET 2 μM ATP GMean IC50
[7] = 1 mM ATP, Table 3, read-out: GSK3a TR-FRET 1 mM ATP Average IC50
[8] = 1 mM ATP, Table 3, read-out: GSK3b TR-FRET 1 mM ATP Average IC50

T1 sequence (P49840 whole entry): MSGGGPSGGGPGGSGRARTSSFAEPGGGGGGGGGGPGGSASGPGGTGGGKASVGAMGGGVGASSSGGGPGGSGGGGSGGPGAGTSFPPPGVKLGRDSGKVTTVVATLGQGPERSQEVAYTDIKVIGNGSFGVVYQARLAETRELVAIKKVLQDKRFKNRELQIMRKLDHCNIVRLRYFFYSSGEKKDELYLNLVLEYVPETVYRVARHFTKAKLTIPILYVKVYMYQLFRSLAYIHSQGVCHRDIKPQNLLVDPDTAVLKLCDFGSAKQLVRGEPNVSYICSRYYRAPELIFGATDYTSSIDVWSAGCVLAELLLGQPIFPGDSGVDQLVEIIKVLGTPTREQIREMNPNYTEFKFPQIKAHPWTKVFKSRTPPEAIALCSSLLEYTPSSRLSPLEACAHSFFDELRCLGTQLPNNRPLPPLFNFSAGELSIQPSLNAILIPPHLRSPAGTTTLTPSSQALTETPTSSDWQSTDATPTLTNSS
T2 sequence (P49841 whole entry): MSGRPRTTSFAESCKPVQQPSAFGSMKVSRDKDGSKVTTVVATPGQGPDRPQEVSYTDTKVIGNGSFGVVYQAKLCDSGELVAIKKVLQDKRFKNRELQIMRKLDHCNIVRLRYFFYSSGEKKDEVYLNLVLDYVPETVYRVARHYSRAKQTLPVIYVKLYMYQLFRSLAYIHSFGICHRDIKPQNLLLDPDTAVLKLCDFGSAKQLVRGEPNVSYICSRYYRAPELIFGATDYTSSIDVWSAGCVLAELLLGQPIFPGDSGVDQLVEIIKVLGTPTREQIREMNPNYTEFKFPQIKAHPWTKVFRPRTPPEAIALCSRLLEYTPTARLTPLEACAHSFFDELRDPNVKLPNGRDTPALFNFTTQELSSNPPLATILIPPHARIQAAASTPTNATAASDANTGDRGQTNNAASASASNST

pIC50 [1, 3]: ≥ 7.00 | pIC50 [2, 4]: 4.70 to 5.30
SMILES: CC1(C)CC(=O)C2=C(C1)Nc1ncccc1C2(C)c1cccc(N(CC2CC2)c2ncccn2)c1 (single isomer, unassigned) [652B]

pIC50 [1, 5]: 6.00 to 7.00 | pIC50 [2, 6]: 6.00 to 7.00
SMILES: CCC1(c2cccc(-c3cnnc(C)c3)c2)C2=C(CC(C)(C)CC2=O)Nc2ncccc21 (single isomer, unassigned) [Compound 1022A]

pIC50 [1, 7]: 4.70 to 5.30 | pIC50 [2, 8]: 4.70 to 5.30
SMILES: CC1(C)CC(=O)C2=C(C1)Nc1ncc(C#N)cc1C2(C)c1ccccc1 (single isomer, unassigned) [Compound 109B]

pIC50 [1, 5]: ≥ 7.00 | pIC50 [2, 6]: ≥ 7.00
SMILES: CCC1(c2cccc(-c3cnn(C)c3)c2)C2=C(CC(C)(C)CC2=O)Nc2ncccc21 (single isomer, unassigned) [Compound 1018B]

pIC50 [1, 5]: 5.30 to 6.00 | pIC50 ([1]; 10 μM ATP, read-out: GSK3a 10 μM ATP Average IC50): ≥ 7.00 | pIC50 ([1]; 100 μM ATP, read-out: GSK3a 100 μM ATP Average IC50): ≥ 7.00 | pIC50 [1, 7]: 6.00 to 7.00 | pIC50 [2, 6]: < 5.30 | pIC50 ([2]; 10 μM ATP, read-out: GSK3b 10 μM ATP Average IC50): ≥ 7.00 | pIC50 ([2]; 100 μM ATP, read-out: GSK3b 100 μM ATP Average IC50): ≥ 7.00 | pIC50 [2, 8]: 6.00 to 7.00
SMILES: CCC1(c2cccc(-c3ccnc4c3CCCC4)c2)C2=C(CC(C)(C)CC2=O)Nc2ncc(F)cc21 (single isomer, unassigned) [Compound 165A]

pIC50 [1, 3]: 4.70 to 5.30 | pIC50 [2, 4]: 4.70 to 5.30
SMILES: CC1(C)CC2=C(C(=O)N1)C(C)(c1cccc(S(C)(=O)=O)c1)c1cc(F)cnc1N2 (single isomer, unassigned) [638B]

pIC50 [1, 3]: 6.00 to 7.00 | pIC50 [2, 4]: 6.00 to 7.00
SMILES: CC1(C)CC2=C(C(=O)[C@@H]1F)[C@@](C)(c1ccccc1)c1c(ncc(F)c1C#N)N2 (single isomer, unassigned) [Compound 616A]

pIC50 [1, 7]: 5.30 to 6.00 | pIC50 [2, 8]: 5.30 to 6.00
SMILES: CC1(C)CC(=O)C2=C(C1)Nc1ncccc1C2(C)c1cccc(-c2ccncc2N2CCOCC2)c1 (single isomer, unassigned) [Compound 164A]

pIC50 [1, 5]: < 5.30 | pIC50 [2, 6]: < 5.30
SMILES: CCC1(c2cccc(-c3cc(C)ncc3C)c2)C2=C(CC(C)(C)CC2=O)Nc2ncccc21 (single isomer, unassigned) [Compound 1027A]

pIC50 [1, 7]: 5.30 to 6.00 | pIC50 [2, 8]: 5.30 to 6.00
SMILES: Cc1nn(C)c(C)c1-c1cccc(C2(C)C3=C(CC(C)(C)CC3=O)Nc3ncc(C(F)(F)F)cc32)c1 (single isomer, unassigned) [Compound 170A]

pIC50 [1, 7]: 5.30 to 6.00 | pIC50 [2, 8]: 5.30 to 6.00
SMILES: CC1(C)CC(=O)C2=C(C1)Nc1nccc(CC(F)(F)F)c1C2(C)c1ccccc1 (single isomer, unassigned) [Compound 132A]

pIC50 [1, 5]: < 5.30 | pIC50 [2, 6]: < 5.30
SMILES: CCC1(c2ccccc2)C2=C(Nc3ncccc31)C(F)C(C)(C)CC2=O (single isomer, unassigned) [Compound 1006A]

pIC50 [1, 7]: 4.70 to 5.30 | pIC50 [2, 8]: 4.70 to 5.30
SMILES: COc1cncc(F)c1-c1cccc(C2(C)C3=C(CC(C)(C)CC3=O)Nc3ncc(F)cc32)c1 (single isomer, unassigned) [Compound 156B]

pIC50 [1, 3]: ≥ 7.00 | pIC50 [2, 4]: 6.00 to 7.00
SMILES: CC1(C)CC2=C(C(=O)N1)C(C)(c1cccc(S(C)(=O)=O)c1)c1cccnc1N2 (single isomer, unassigned) [630A]

pIC50 [1, 7]: 4.70 to 5.30
SMILES: CC1(C)CC(=O)C2=C(C1)Nc1nccc(C#N)c1C2(C)c1ccccc1 (single isomer, unassigned) [Compound 108B]

pIC50 [1, 5]: 5.30 to 6.00 | pIC50 [2, 6]: < 5.30
SMILES: CCC1(c2cccc(-c3cc(C)nn3C)c2)C2=C(CC(C)(C)CC2=O)Nc2ncccc21 (single isomer, unassigned) [Compound 1024A]

pIC50 [1, 3]: 4.70 to 5.30
SMILES: CC1(C)CC2=C(C(=O)N1)C(C)(c1ccccc1)c1cc(C(F)(F)F)cnc1N2 (single isomer, unassigned) [625B]

pIC50 [1, 5]: < 5.30 | pIC50 [2, 6]: < 5.30
SMILES: CCC1(c2ccccc2)C2=C(Nc3ncccc31)C(F)C(C)(C)CC2=O (single isomer, unassigned) [Compound 1006B]

pIC50 [1, 3]: 4.70 to 5.30 | pIC50 [2, 4]: 5.30 to 6.00
SMILES: C=Cc1c(C(F)(F)F)cnc2c1C(C)(c1ccccc1)C1=C(CC(C)(C)CC1=O)N2 (single isomer, unassigned) [636B]

pIC50 [1, 3]: 5.30 to 6.00 | pIC50 [2, 4]: 5.30 to 6.00
SMILES: CN1C(=O)C2=C(CC1(C)C)Nc1ncc(F)c(C#N)c1C2(C)c1ccccc1 (single isomer, unassigned) [615A]

pIC50 [1, 3]: ≥ 7.00 | pIC50 [2, 4]: 6.00 to 7.00
SMILES: CC1(C)CC2=C(C(=O)N1)C(C)(c1cccc(S(C)(=O)=O)c1)c1cc(F)cnc1N2 (single isomer, unassigned) [638A]

pIC50 [1, 3]: 4.70 to 5.30 | pIC50 [2, 4]: 4.70 to 5.30
SMILES: CN(C)c1cnc2c(c1C#N)C(C)(c1ccccc1)C1=C(CC(C)(C)CC1=O)N2 (single isomer, unassigned) [624A]

pIC50 [1, 3]: 5.30 to 6.00 | pIC50 [2, 4]: 5.30 to 6.00
SMILES: CC1(C)CC2=C(C(=O)N1)C(C)(c1ccccc1)c1cc(C(F)(F)F)cnc1N2 (single isomer, unassigned) [625A]

pIC50 [1, 3]: 6.00 to 7.00 | pIC50 [2, 4]: 6.00 to 7.00
SMILES: Cc1ccc(C2(C)C3=C(CC(C)(C)CC3=O)Nc3ncc(F)cc32)cc1S(C)(=O)=O (single isomer, unassigned) [644A]

pIC50 [1, 7]: 6.00 to 7.00 | pIC50 [2, 8]: 6.00 to 7.00
SMILES: CC1(C)CC(=O)C2=C(C1)Nc1ncccc1C2(C)c1cccc(-c2ccncc2OCC(F)F)c1 (single isomer, unassigned) [Compound 162B]

pIC50 [1, 3]: 4.70 to 5.30 | pIC50 [2, 4]: 4.70 to 5.30
SMILES: C=Cc1cnc2c(c1C#N)C(C)(c1ccccc1)C1=C(CC(C)(C)CC1=O)N2 (single isomer, unassigned) [607B]

pIC50 [1, 7]: 5.30 to 6.00 | pIC50 [2, 8]: 5.30 to 6.00
SMILES: CC1(C)CC(=O)C2=C(C1)Nc1ncc(C(F)(F)F)c(Cl)c1C2(C)c1ccccc1 (single isomer, unassigned) [Compound 141B]

pIC50 [2, 8]: 4.70 to 5.30
SMILES: CC1(C)CC(=O)C2=C(C1)Nc1ncc3c(c1C2(C)c1ccccc1)CCC3 (single isomer, unassigned) [Compound 118A]

pIC50 [1, 7]: 4.70 to 5.30
SMILES: CC1(C)CC(=O)C2=C(C1)Nc1ncc(F)c(F)c1C2(C)c1ccccc1 (single isomer, unassigned) [Compound 116A]

pIC50 [2, 4]: 4.70 to 5.30
SMILES: CC(C)c1cnc2c(c1C#N)C(C)(c1ccccc1)C1=C(CC(C)(C)CC1=O)N2 (single isomer, unassigned) [622A]

pIC50 [2, 4]: 4.70 to 5.30
SMILES: COc1cnc2c(c1)C(C)(c1ccccc1)C1=C(CC(C)(C)CC1=O)N2 (single isomer, unassigned) [602B]

pIC50 [2, 4]: 4.70 to 5.30
SMILES: CC(C)Oc1cccc(C2(C)C3=C(CC(C)(C)CC3=O)Nc3ncc(F)cc32)c1 (single isomer, unassigned) [629A]

pIC50 [2, 4]: 4.70 to 5.30
SMILES: CC(=O)c1cnc2c(c1C#N)C(C)(c1ccccc1)C1=C(CC(C)(C)CC1=O)N2 (single isomer, unassigned) [621B]

pIC50 [2, 8]: 4.70 to 5.30
SMILES: CC1(C)CC(=O)C2=C(C1)Nc1nccc(F)c1C2(C)c1ccccc1 (single isomer, unassigned) [Compound 105A]

pIC50 [1, 3]: 4.70 to 5.30
SMILES: Cc1c(C2(C)C3=C(CC(C)(C)CC3=O)Nc3ncc(F)cc32)cccc1S(C)(=O)=O (single isomer, unassigned) [643B]

pIC50 [2, 4]: 4.70 to 5.30
SMILES: COc1cnc2c(c1C#N)C(C)(c1ccccc1)C1=C(CC(C)(C)CC1=O)N2 (single isomer, unassigned) [612A]

pIC50 [1, 3]: 4.70 to 5.30
SMILES: CC1(C)CC2=C(C(=O)N1)C(C)(c1cccc(S(C)(=O)=O)c1)c1cccnc1N2 (single isomer, unassigned) [630B]

pIC50 [1, 3]: 4.70 to 5.30
SMILES: CC1(C)CC(=O)C2=C(C1)Nc1ncc(F)cc1C2(C)c1cccc(C(F)F)c1 (single isomer, unassigned) [623A]

pIC50 [2, 8]: 4.70 to 5.30
SMILES: CC1(C)CC(=O)C2=C(C1)Nc1ncc(F)cc1C2(C)c1ccccc1 (single isomer, unassigned) [Compound 107A]

pIC50 [2, 4]: 4.70 to 5.30
SMILES: C=Cc1cnc2c(c1Br)C(C)(c1ccccc1)C1=C(CC(C)(C)CC1=O)N2 (single isomer, unassigned) [640A]
